Measured values taken from the supplement of paper PMC10307832.

Columns and labels:
Assay in all cases: relative viability (nuclei count vs DMSO), 5 days (fraction); higher = more cells survive
[1] = compound: O=c1[nH]cc(F)c(=O)[nH]1 [5-Fluorouracil] + O=C(c1cc(Cc2n[nH]c(=O)c3ccccc23)ccc1F)N1CCN(C(=O)C2CC2)CC1 [Olaparib] (partner 8 µM)
Procedure, shortened: (§1)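 Nuclei were stained with Hoechst during a one-step fixation (final 0.05% Triton X-100, 1% formaldehyde, 1 ug/ml Hoechst) carried out 5 days after dosing, then counted on 4× images. The cells, lung cancer lines in 1536-well plates, had been dosed by pin tool the day after seeding with one drug alone or a fixed anchor-drug dose plus five library-drug doses (not always all listed) in √10 steps. Relative viability is the nuclei count in treated wells divided by that in vehicle wells, and each value is the median of duplicate plates.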

Staurosporine + Olaparib = compound: CN[C@@H]1C[C@H]2O[C@@](C)([C@@H]1OC)n1c3ccccc3c3c4c(c5c6ccccc6n2c5c31)C(=O)NC4 [Staurosporine] + O=C(c1cc(Cc2n[nH]c(=O)c3ccccc23)ccc1F)N1CCN(C(=O)C2CC2)CC1 [Olaparib] (partner 8 µM)
Procedure, shortened: as §1

[2] = compound: O=c1[nH]cc(F)c(=O)[nH]1 [5-Fluorouracil] + CS(=O)(=O)N1CCN(Cc2cc3nc(-c4cccc5[nH]ncc45)nc(N4CCOCC4)c3s2)CC1 [Pictilisib] (partner 1 µM)
Procedure, shortened: as §1

Staurosporine + OSI-027 = compound: CN[C@@H]1C[C@H]2O[C@@](C)([C@@H]1OC)n1c3ccccc3c3c4c(c5c6ccccc6n2c5c31)C(=O)NC4 [Staurosporine] + COc1cccc2cc(-c3nc([C@H]4CC[C@H](C(=O)O)CC4)n4ncnc(N)c34)[nH]c12 [OSI-027] (partner 0.5 µM)
Procedure, shortened: as §1

| Cell Line | relative viability ([1]; first compound 0.02 µM) | relative viability ([1]; first compound 0.2 µM) | relative viability ([1]; first compound 0.6325 µM) | relative viability ([1]; first compound 2 µM) | relative viability (Staurosporine + Olaparib; first compound 0.005 µM) | relative viability (Staurosporine + Olaparib; first compound 0.01581 µM) | relative viability (Staurosporine + Olaparib; first compound 0.05 µM) | relative viability (Staurosporine + Olaparib; first compound 0.1581 µM) | relative viability (Staurosporine + Olaparib; first compound 0.5 µM) | relative viability ([2]; first compound 0.02 µM) | relative viability ([2]; first compound 0.2 µM) | relative viability ([2]; first compound 0.6325 µM) | relative viability ([2]; first compound 2 µM) | relative viability (Staurosporine + OSI-027; first compound 0.005 µM) | relative viability (Staurosporine + OSI-027; first compound 0.01581 µM) | relative viability (Staurosporine + OSI-027; first compound 0.05 µM) | relative viability (Staurosporine + OSI-027; first compound 0.1581 µM) | relative viability (Staurosporine + OSI-027; first compound 0.5 µM) |
| --- | --- | --- | --- | --- | --- | --- | --- | --- | --- | --- | --- | --- | --- | --- | --- | --- | --- | --- |
| NCI-H1734 | 0.586 | 0.667 | 0.53 | 0.393 | 0.566 | 0.354 | 0.257 | 0.194 | 0.0713 | 0.496 | 0.49 | 0.427 | 0.303 | 0.456 | 0.245 | 0.209 | 0.13 | 0.0703 |
| NCI-H1650 | 0.797 | 0.754 | 0.381 | 0.229 | 0.703 | 0.598 | 0.385 | 0.306 | 0.0918 | 0.587 | 0.537 | 0.428 | 0.306 | 0.357 | 0.187 | 0.142 | 0.168 |  |
| PC-14 | 0.277 | 0.265 | 0.304 | 0.179 | 0.147 | 0.0797 | 0.042 | 0.0556 | 0.043 | 0.711 | 0.763 | 0.7 | 0.415 | 0.325 | 0.0499 | 0.0618 | 0.0552 | 0.0305 |
| NCI-H1915 | 0.197 | 0.269 | 0.22 | 0.211 | 0.214 | 0.124 | 0.159 | 0.0952 | 0.0708 | 0.958 | 0.908 | 1.01 | 0.773 | 0.448 | 0.115 | 0.193 | 0.0877 | 0.111 |
| COR-L23 | 0.36 | 0.312 | 0.273 | 0.18 | 0.216 | 0.189 | 0.164 | 0.141 | 0.0662 | 0.864 | 0.711 | 0.367 | 0.231 | 0.462 | 0.381 | 0.199 | 0.104 | 0.0775 |
| ChaGo-K-1 | 0.36 | 0.393 | 0.321 | 0.25 | 0.43 |  | 0.342 | 0.232 | 0.243 | 0.747 | 0.919 | 0.48 | 0.645 | 0.678 | 0.203 | 0.553 | 0.135 | 0.118 |
| HOP-62 | 0.39 | 0.449 | 0.405 | 0.387 | 0.441 | 0.157 | 0.0992 | 0.143 | 0.104 | 0.711 | 0.879 | 0.705 | 0.569 | 0.554 | 0.225 | 0.125 | 0.112 | 0.0933 |
| NCI-H1975 | 0.805 | 0.736 | 0.356 | 0.21 | 0.306 | 0.225 | 0.165 | 0.107 | 0.104 | 0.309 | 0.308 | 0.262 | 0.217 | 0.573 | 0.144 | 0.187 |  | 0.0826 |
| BEN | 1.01 | 0.851 | 0.907 | 0.913 | 0.976 | 0.799 | 0.641 | 0.514 | 0.362 | 0.557 | 0.597 | 0.536 | 0.555 | 0.386 | 0.287 | 0.275 | 0.247 | 0.193 |
| NCI-H1437 | 0.517 | 0.285 | 0.222 | 0.217 | 0.506 | 0.456 | 0.401 | 0.168 | 0.106 |  | 0.183 | 0.116 | 0.1 | 0.744 |  | 0.587 | 0.183 | 0.181 |
| EMC-BAC-2 | 0.479 | 0.53 | 0.45 | 0.469 | 0.245 | 0.162 | 0.172 | 0.177 | 0.19 | 0.616 | 0.56 | 0.506 | 0.536 | 0.211 | 0.177 | 0.161 | 0.224 | 0.177 |
| SW 1573 | 0.477 | 0.625 | 0.416 | 0.262 | 0.189 | 0.124 | 0.121 | 0.0899 | 0.063 |  | 0.597 | 0.519 | 0.328 | 0.161 | 0.11 | 0.085 | 0.0637 | 0.0578 |
| NCI-H661 | 0.776 | 0.8 | 0.808 | 0.693 | 0.65 | 0.556 | 0.521 | 0.333 | 0.175 | 0.35 | 0.469 | 0.376 | 0.433 | 0.641 | 0.413 | 0.346 | 0.201 | 0.166 |
| LXF-289 | 1.05 | 0.778 | 0.439 | 0.334 | 1.1 | 0.193 | 0.395 | 0.164 | 0.227 | 0.787 | 0.689 | 0.421 | 0.295 | 0.215 | 0.0608 | 0.116 | 0.0713 | 0.051 |
| LOU-NH91 | 0.92 | 0.853 | 0.74 | 0.314 | 0.816 | 0.577 | 0.572 | 0.344 | 0.246 | 0.512 | 0.47 | 0.388 | 0.34 | 0.767 | 0.571 | 0.487 | 0.344 | 0.213 |
| NCI-H2347 | 0.62 | 0.489 | 0.456 | 0.445 | 0.481 | 0.319 | 0.39 | 0.371 | 0.292 | 0.688 | 0.44 | 0.407 | 0.363 | 0.385 | 0.229 | 0.171 | 0.277 | 0.238 |
| NCI-H2009 | 0.794 | 0.668 | 0.655 | 0.466 | 0.532 | 0.248 | 0.0909 | 0.112 | 0.0765 | 0.798 | 0.679 | 0.533 | 0.446 | 0.233 |  | 0.163 | 0.123 | 0.082 |
| HCC-827 | 0.336 | 0.647 | 0.552 | 0.304 | 0.666 | 0.5 | 0.467 | 0.322 | 0.22 | 0.749 | 1.03 | 0.656 | 0.478 | 0.875 | 0.672 | 0.476 | 0.383 | 0.211 |
